# In patent US5462926A (Biomeasure, Inc., priority 1993, dated 1995):
# Where a SMILES comes first, the peptide text is derived from it. Bridges are numbered along the chain shown (N, C = ends). [ ]: non-standard residue; d: D form. 2Nal = N[C@@H](Cc1ccc2ccccc2c1)C(=O)O; d2Nal = N[C@H](Cc1ccc2ccccc2c1)C(=O)O
# Experiments:
# Assay type in all cases: binding
# CCKA receptors = target: T1, CCKA receptors (Rattus norvegicus, UniProt P30551); assay: CCKA receptor assay, 125I-CCK-8, rat pancreatic membranes
# T1 construct: rat pancreas (CCKA receptor assay); from tissue; host or cells: rat pancreas membranes
# CCKB = target: T2, CCKB (Rattus norvegicus, UniProt P30553); assay: CCKB membrane receptor assay, rat cerebral cortex; conditions: 1 μM
# T2 construct: rat cerebral cortex (CCKB, PYY, neurotensin,; from tissue; host or cells: rat cerebral cortex membranes
# endothelinA = target: T3, endothelinA (Rattus norvegicus, UniProt P26684); assay: EtA membrane receptor assay, A10 smooth muscle cells; conditions: 1 μM
# T3 construct: A10 smooth muscle cells (EtA membrane receptor assay); endogenous in cells; host or cells: A10 smooth muscle cells (membranes)
# bradykinin1 = assay: Bradykinin membrane receptor assay, [3H]bradykinin; conditions: 1 μM
# α1-adrenergic receptor = assay: α1-adrenergic membrane receptor assay, rat cerebral cortex; conditions: 1 μM
# α2-adrenergic receptor = assay: α2-adrenergic membrane receptor assay, rat cerebral cortex; conditions: 1 μM
# [1] = system: muscarinic cholinergic receptor; assay: Muscarinic cholinergic membrane receptor assay, rat cerebral cortex; conditions: 1 μM
# [2] = system: benzodiazepine-neural receptor; assay: Neural benzodiazepine membrane receptor assay, rat cerebral cortex; conditions: 1 μM
# dopamine2 receptor = target: T4, dopamine2 receptor (Rattus norvegicus, UniProt P61169); assay: Dopamine2 membrane receptor assay, rat corpus striatum; conditions: 1 μM
# T4 construct: rat corpus striatum (dopamine1 and dopamine2 membrane receptor assays); from tissue; host or cells: rat corpus striatum membranes
# sigma opioid receptor = target: T5, sigma opioid receptor (Cavia porcellus, UniProt Q60492); assay: Sigma opioid membrane receptor assay, guinea pig cerebral; conditions: 1 μM
# T5 construct: guinea pig cerebral (N1, histamine H1, and sigma opioid membrane receptor assays); from tissue; host or cells: guinea pig cerebral membranes
# T5 sequence (Q60492 whole entry): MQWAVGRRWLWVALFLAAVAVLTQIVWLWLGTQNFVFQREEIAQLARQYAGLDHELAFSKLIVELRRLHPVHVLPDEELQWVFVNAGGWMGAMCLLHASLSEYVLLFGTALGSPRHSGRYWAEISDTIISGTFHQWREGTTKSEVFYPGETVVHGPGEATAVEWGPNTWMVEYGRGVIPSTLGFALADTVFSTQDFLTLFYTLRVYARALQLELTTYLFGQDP
# T1 sequence (P30551 whole entry): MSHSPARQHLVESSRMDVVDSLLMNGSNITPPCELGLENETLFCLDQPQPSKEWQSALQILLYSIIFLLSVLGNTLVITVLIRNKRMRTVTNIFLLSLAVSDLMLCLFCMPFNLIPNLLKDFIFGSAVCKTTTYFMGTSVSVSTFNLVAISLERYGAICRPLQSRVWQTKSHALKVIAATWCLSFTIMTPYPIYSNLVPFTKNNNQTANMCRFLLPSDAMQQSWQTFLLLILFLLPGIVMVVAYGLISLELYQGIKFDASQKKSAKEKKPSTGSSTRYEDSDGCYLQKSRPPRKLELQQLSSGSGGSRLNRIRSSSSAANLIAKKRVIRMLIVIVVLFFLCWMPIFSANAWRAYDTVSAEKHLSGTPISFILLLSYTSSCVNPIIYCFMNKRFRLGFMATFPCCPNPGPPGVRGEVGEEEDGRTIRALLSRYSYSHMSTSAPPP
# T3 sequence (P26684 21-426): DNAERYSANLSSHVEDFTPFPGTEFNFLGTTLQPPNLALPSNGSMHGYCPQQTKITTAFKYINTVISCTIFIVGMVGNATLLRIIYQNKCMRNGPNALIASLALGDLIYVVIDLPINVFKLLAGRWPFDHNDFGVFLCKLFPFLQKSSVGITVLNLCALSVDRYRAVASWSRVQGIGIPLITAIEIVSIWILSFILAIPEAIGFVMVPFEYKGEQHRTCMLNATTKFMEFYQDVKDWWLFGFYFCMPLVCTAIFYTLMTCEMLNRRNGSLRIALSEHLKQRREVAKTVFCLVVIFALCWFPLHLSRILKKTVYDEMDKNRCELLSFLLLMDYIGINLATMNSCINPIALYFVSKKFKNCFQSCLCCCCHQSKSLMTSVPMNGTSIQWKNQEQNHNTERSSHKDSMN
# T2 sequence (P30553 whole entry): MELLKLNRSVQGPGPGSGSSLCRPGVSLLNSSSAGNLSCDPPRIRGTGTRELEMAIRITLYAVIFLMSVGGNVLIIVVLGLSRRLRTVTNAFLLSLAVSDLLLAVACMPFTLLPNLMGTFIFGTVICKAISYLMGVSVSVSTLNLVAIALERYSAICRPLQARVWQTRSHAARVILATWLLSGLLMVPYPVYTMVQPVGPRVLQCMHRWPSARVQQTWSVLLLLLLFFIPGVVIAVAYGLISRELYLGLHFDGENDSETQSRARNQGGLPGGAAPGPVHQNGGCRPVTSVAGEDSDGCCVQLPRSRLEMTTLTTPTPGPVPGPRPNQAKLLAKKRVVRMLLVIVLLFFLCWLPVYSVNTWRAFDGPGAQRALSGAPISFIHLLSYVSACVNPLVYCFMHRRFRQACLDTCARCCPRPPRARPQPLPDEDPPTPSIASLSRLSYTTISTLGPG
# T4 sequence (P61169 whole entry): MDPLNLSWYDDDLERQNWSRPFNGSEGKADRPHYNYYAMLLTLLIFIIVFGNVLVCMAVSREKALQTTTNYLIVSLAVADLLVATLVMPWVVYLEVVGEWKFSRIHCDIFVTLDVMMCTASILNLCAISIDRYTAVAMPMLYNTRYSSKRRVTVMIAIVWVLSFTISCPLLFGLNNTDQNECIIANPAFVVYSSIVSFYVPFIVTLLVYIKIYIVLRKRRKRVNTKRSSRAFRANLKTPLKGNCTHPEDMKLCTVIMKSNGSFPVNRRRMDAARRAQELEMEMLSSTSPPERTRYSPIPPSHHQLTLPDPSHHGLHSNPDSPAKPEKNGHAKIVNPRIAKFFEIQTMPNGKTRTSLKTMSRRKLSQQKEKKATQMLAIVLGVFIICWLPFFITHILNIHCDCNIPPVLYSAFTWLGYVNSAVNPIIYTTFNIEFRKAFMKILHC
structure (smiles),measurement,setting,value
"CC(C)[C@@H]1NC(=O)[C@H](CCCCN)NC(=O)[C@@H](Cc2c[nH]c3ccccc23)NC(=O)[C@H](Cc2ccc(O)cc2)NC(=O)[C@@H](NC(=O)[C@H](N)Cc2ccc3ccccc3c2)CSSC[C@@H](C(=O)N[C@@H](Cc2ccc3ccccc3c2)C(N)=O)NC1=O [Analog #1, H2 -D-Nal-Cys-Tyr-D-Trp-Lys-Val-Cys-Nal-NH2] (H-[d2Nal]CY[dW]KVC[2Nal]-NH2; disulfide 2-7)",inhibition of binding to CCKA receptors,CCKA receptors; 1 μM,did not inhibit binding
same,Ki,"CCKA receptors; rat pancreatic membranes, read-out: affinity, inhibition of 125I-CCK-8 binding to CCKA receptors",5.537 ± 0.007 µM
same,inhibition of binding to CCKB receptors,CCKB,did not inhibit binding
same,inhibition of binding to endothelinA receptors,endothelinA,did not inhibit binding
same,inhibition of binding to bradykinin1 receptors,bradykinin1,did not inhibit binding
same,inhibition of binding to α1-adrenergic receptors,α1-adrenergic receptor,did not inhibit binding
same,inhibition of binding to α2-adrenergic receptors,α2-adrenergic receptor,did not inhibit binding
same,inhibition of binding to muscarinic cholinergic receptors,[1],did not inhibit binding
same,inhibition of binding to benzodiazepine-neural receptors,[2],did not inhibit binding
same,inhibition of binding to dopamine2 receptors,dopamine2 receptor,did not inhibit binding
same,inhibition of binding to sigma opioid receptors,sigma opioid receptor,did not inhibit binding
